Reference: a melting point compilation (Tetko et al.; mined from patent text by program, amines drawn as free bases though some values may be those of a salt)

Row | Compound | melting point
1 | COC(=O)c1cccc(C=CC(=O)O)c1 | 189 to 190 °C
2 | CCn1c(=O)c(NC(=O)Nc2ccc(F)cc2F)c(-c2ccccc2Cl)c2cc(C)cc(C)c21 | 186 to 188 °C
3 | N[C@@H](CCC(=O)N[C@@H](CS)C(=O)O)C(=O)O | 187 °C
4 | N#CNc1ncc(-c2ccncc2)cn1 | > 300 °C
5 | Cc1cc2c(c(Cc3c[nH]cn3)c1)OC(C)(C)OC2 | 152 to 155 °C
6 | CCCCc1ccc2nc(NC(=O)c3csc(CNC(=O)OC(C)(C)C)n3)sc2c1 | 143 to 144 °C
7 | COc1ccc2c(Cc3c(Cl)cncc3Cl)nnc(CO)c2c1 | 190 to 195 °C
8 | CC(CCC(=O)OC1CCCCC1)C1CC=C2C3=C(CCC21C)C1(C)CCC(O)C(C)(C)C1CC3 (stereo unspecified) | 130 to 132 °C
9 | CS(=O)(=O)Nc1ccc(CCCOCCCCCCNCC(O)c2cc(Cl)c(N)c(Cl)c2)cc1 (stereo unspecified) | 62 to 64 °C
10 | CC(=O)Oc1c(C)cc(C)cc1CCc1cc(C)cc(C)c1OC(C)=O | 130 to 131 °C
11 | Nc1cc(NC(=O)c2cc3cc(C(F)(F)F)ccc3n2Cc2cccc(F)c2)ccn1 | 225 to 226 °C
12 | O=C(Nc1cc(-c2ccnc3c(C(=O)c4cccs4)cnn23)ccc1F)OCCCl | 194 to 196 °C
13 | CN(C)C(=S)SC(C[N+](=O)[O-])c1cccs1 (stereo unspecified) | 88 to 90 °C
14 | COc1cc2cc3c(Cl)c(C#N)cnc3nc2cc1OC | > 300 °C
15 | CN(C)Cc1ccc2cc(NC(=O)c3ccc(-c4ccc(F)cc4)cc3)ccc2n1 | 205 to 208 °C
16 | Clc1ccc2onc(Cl)c2c1 | 43 to 44 °C
17 | CCCCCCCOC(N)=O | 84 °C
18 | NC(=O)Cc1ccc(OCC(O)CNCCCCn2cnc3ccccc32)cc1 (stereo unspecified) | 119 to 123 °C
19 | CNC(=S)NS(=O)(=O)c1cc(CCNC(=O)c2cnc3ccccc3c2)ccc1OC | 85 °C
20 | S=c1[nH]ccn1CCCc1cccs1 | 94 to 96.5 °C
21 | CO/N=C(/C(N)=O)c1ccccc1COC(C)=O | 121 to 123 °C
22 | CCOC(=O)C(C)Oc1ncn(-c2ccc(C)cc2)n1 (stereo unspecified) | 69 to 71 °C
23 | COC(=O)CN1C(=O)C(C(C)C)Sc2ccccc21 (stereo unspecified) | 81 to 82 °C
24 | O=c1oc(C(F)(F)F)ccc1-c1ccc(F)cc1F | 98 to 100 °C
25 | CCCC1CC(=O)C(C(=O)NS(=O)(=O)c2ccc(C)cc2)C(=O)C1 (stereo unspecified) | 132 to 134 °C
26 | CCCCOC(=O)NC(=O)C(c1ccccc1)c1ccccc1 | 82 to 84 °C

Row | Compound | melting point
27 | CSc1ncc(O)c(O)n1 | 213 to 215 °C
28 | N#CCC(O)(c1ccccc1C(F)(F)F)c1ccccc1C(F)(F)F | 168 to 170 °C
29 | O=S(=O)(Cl)c1cc(S(=O)(=O)Cl)c(Cl)cc1Cl | 104 °C
30 | CC1=C(c2ccc(C#N)c3ccccc23)CCC1O (stereo unspecified) | 113 to 114 °C
31 | NS(=O)(=O)c1ccc(-c2cccc(-c3nc(-c4ccc(C(F)(F)F)cc4)cc(C(F)F)n3)c2)s1 | 240 °C
32 | O=C(Oc1cc([N+](=O)[O-])ccc1[N+](=O)[O-])c1cc2ccccc2oc1=O | 223 to 225 °C
33 | COc1ccc(-c2[nH]nc3c2C(=O)c2c(NC(=O)Nc4ccccc4)cccc2-3)cc1 | > 300 °C
34 | CCCN(c1cc(C)ccn1)c1cccc2c1OC[C@H]2Nc1ccc2c(c1)OC[C@H]2CC(=O)O | 146 °C
35 | c1ccc(Oc2ccc(OCn3cnc4ccccc43)cc2)cc1 | 112 °C
36 | COc1ccc(CNC(=O)c2ccc3ccccc3c2Br)cc1 | 155 °C
37 | CC(C)(C)OC(=O)N1CCC(C=C(Br)Br)CC1 | 82.3 to 83.9 °C
38 | C=CCN(CC=C)c1ccc(C=Cc2ccc(S(C)(=O)=O)cc2)cc1 | 101 to 102 °C
39 | OCCCc1ccncc1O | 123 to 126 °C
40 | O=C(NCCCc1ccc(CCl)cc1)c1ccc(-c2ccccn2)cc1 | 115 to 117 °C
41 | FC(F)(F)c1n[nH]c(Cl)c1Cl | 58 to 60 °C
42 | O=C(NN=C(c1ccccc1)c1ccncc1)c1cccnc1 | 74 °C
43 | N#Cc1cccc2c(N)c([N+](=O)[O-])ccc12 | 260 to 262 °C
44 | COCCNC(=O)c1cccc(-c2cccc3c(C)c(Cc4ccc(F)c(Cl)c4)sc23)c1 | 141 to 142 °C
45 | CCOC(=O)Cc1ncn(C(c2ccccc2)(c2ccccc2)c2ccccc2)n1 | 117 to 119 °C
46 | CC=C1CCC(C(=O)OCCOC(=O)C2=C(C)C(=CC)CC2)=C1C | 95 to 97 °C
47 | CCC(CC)c1nn(-c2ccc(Cl)cn2)cc1CCCO | 62 to 63 °C
48 | C[C@@H]1CN(C(=O)[C@@](C)(O)C(F)(F)F)[C@@H](C)CN1S(=O)(=O)c1ccc(F)cc1 | 174 to 175 °C
49 | N#Cc1ccc(OS(N)(=O)=O)cc1 | 154 to 156 °C
50 | CNc1cc(S(=O)(=O)c2ccc(N)cc2)cc(C)n1 | 126 to 127 °C
51 | CCOC(OCC)c1cc(-n2c(=O)cc(C(F)(F)F)n(N)c2=O)ccc1Cl | 80 to 81 °C

Now from value to compound:

Row | melting point | Compound
52 | 245 to 247 °C | COc1ccccc1-c1cnc(-c2ccccc2)[nH]c1=O
53 | 87 °C | CCOC(=O)c1ccc(N2CCC(NC[C@H](O)COc3ccc(O)c(S(=O)(=O)NC)c3)CC2)cc1
54 | 128 to 129 °C | N#Cc1ccc2c(c1)CC[C@@H]1CC(=O)CC[C@@]21Cc1ccccc1
55 | 177 to 178 °C | CC(C)(C)N1CC(=O)Nc2ccc(Cl)cc2C1=O
56 | > 300 °C | Cc1[nH]c(=O)c2cc3nc(-c4ccncc4)[nH]c3cc2c1C
57 | 159 to 161 °C | CC(=O)NCC1CN(c2ccc(N3CCS(=O)CC3)c(F)c2)C(=O)O1 (stereo unspecified)
58 | 186 to 189 °C | O=C(c1ccccc1)c1cnn2c1NCCC2c1ccncc1 (stereo unspecified)
59 | 285 to 287 °C | CC(C)CNC(=O)c1c[nH]c2ncc(-c3nn(C)c4cc(F)ccc34)nc12
60 | 250 to 252 °C | N#Cc1cnn(-c2ccc(Cl)nn2)c1N
61 | 116 to 118 °C | O=C(O)c1ccc(OC(F)(F)F)c(OC2CCCC2)c1
62 | 79.9 to 82.1 °C | CC(=O)NC[C@H]1CN(c2ccc(-n3nccc3-c3ccccn3)c(F)c2)C(=O)O1
63 | 145 to 147 °C | NC(=O)c1ccccc1NCCC12CCCN1CCC2
64 | 125 °C | CCC=Cc1nc2ccccc2n1-c1cccc(C#N)c1C
65 | 125 to 127 °C | Cc1cc(-c2cc(C(F)(F)F)nn2-c2ccc(S(N)(=O)=O)c(F)c2)ccc1-c1cscn1
66 | 60 to 62 °C | CCOC(=O)Cc1ccc2c(c1)sc1ccccc12
67 | 133 to 135 °C | Nc1ccccc1Oc1ncc(C(F)(F)F)cc1Cl
68 | 123 to 126 °C | O=C1CC2c3c(Br)cccc3CCC23OCC(c2ccccc2)N13 (stereo unspecified)
69 | 142 °C | CN(C)S(=O)(=O)c1ccc2c(c1)CCC2=O
70 | 183 °C | Cn1ccc2c1CCn1ncnc1C2=C1CCNCC1
71 | 145 to 150 °C | C#Cc1ccnc(-c2cc(N)c(C#C[Si](C)(C)C)cc2[N+](=O)[O-])c1
72 | 132 to 133 °C | OCc1cc2c3ccccc3ncn2n1
73 | 63 °C | CN1CC=CC(c2cc3ccccc3o2)C1 (stereo unspecified)
74 | 80 to 83 °C | CS(=O)(=O)c1ccc(-c2cnn(-c3ccc(F)c(F)c3)c(=O)c2C2CCCCC2)cc1
75 | 80 to 82 °C | COc1cn(Cc2cccc3ccccc23)c(=O)o1
76 | 226 °C | CN(c1cccc2cc(C3=NCC4(CCN(CC(N)=O)CC4)S3)[nH]c12)S(=O)(=O)c1cccs1
